Values joined by “and” are separate entries in the source; they are usually repeats but may differ in a detail not shown here. Equal entries are not always repeated.

This series concerns Rattus norvegicus.
Where [1] appears, read: reproduction developmental, duration: 9 days, inhalation, F, Crl:CD(SD) BR, generation: P0, P0: Whole Body: Maternal Body Weight Change.
Setting [2] is: reproduction developmental, duration: 9 days, inhalation, F, Sprague-Dawley, generation: P0, P0: General Toxicity: Whole Body: Clinical Observations + P0: General Toxicity: Whole Body: Maternal Body Weight Change.
Where [3] appears, read: short-term, duration: 4 weeks, inhalation, F, Wistar, Multi-organ: Inorganic Phosphorous (PHOS), Blood.
[4] abbreviates: short-term, duration: 4 weeks, inhalation, M, Wistar, Blood: Partial Thromboplastin Time (PTT) + Liver: Cytoplasmic Vacuolation, Fatty Hepatocellular.
[5] abbreviates: subchronic, duration: 90 days, inhalation, F, RccHan (Wist), Blood: Large Unstained Cells + Blood: Lymphocyte + Blood: Monocytes.
[6] abbreviates: subchronic, duration: 90 days, inhalation, F, Wistar, General Toxicity: Whole Body: Body Weight Change + Immune: Blood: Large Unstained Cells + Immune: Blood: Lymphocyte + Immune: Blood: ….
The mark [7] stands for this setting: subchronic, duration: 90 days, inhalation, F, Wistar, Immune: Blood: Large Unstained Cells + Immune: Blood: Lymphocyte + Immune: Blood: Monocytes + Immune: Blood: White Blood Cell (WBC).
The mark [8] stands for this setting: subchronic, duration: 90 days, inhalation, M/F, Wistar, Immune: Blood: Basophils + Immune: Blood: Eosinophils + Immune: Blood: Neutrophils.
The mark [9] stands for this setting: subchronic, duration: 90 days, inhalation, M, RccHan (Wist), Blood: Lymphocyte + Blood: Monocytes + Blood: White Blood Cell (WBC).
The mark [10] stands for this setting: subchronic, duration: 90 days, inhalation, M, Wistar, General Toxicity: Whole Body: Body Weight Change + Immune: Blood: Large Unstained Cells + Immune: Blood: Lymphocyte + Immune: Blood: ….
Where [11] appears, read: subchronic, duration: 90 days, inhalation, M, Wistar, Immune: Blood: Large Unstained Cells + Immune: Blood: Lymphocyte + Immune: Blood: Monocytes + Immune: Blood: White Blood Cell (WBC).
The mark [12] stands for this setting: short-term, duration: 3 days, injection, subcutaneous, F, Crj:CD, uterus: uterine dry weight (absolute).
Where [13] appears, read: short-term, duration: 3 days, injection, subcutaneous, F, Sprague-Dawley, uterus: absolute blotted uterine weight.
Setting [14] is: short-term, duration: 10 days, oral, gavage, M, BrlHan:WIST, body weight.
Where [15] appears, read: short-term, duration: 10 days, oral, gavage, M, BrlHan:WIST, male accessory sex gland: BC/LA weight (relative).
Setting [16] is: short-term, duration: 10 days, oral, gavage, M, BrlHan:WIST, male accessory sex gland: relative bulbourethral gland weight in the presence of TP + male accessory sex gland: relative seminal vesicle ….
[17] abbreviates: short-term, duration: 10 days, oral, gavage, M, BrlHan:WIST, male accessory sex gland: relative ventral prostate weight in the presence of TP.
Setting [18] is: short-term, duration: 28 days, oral, gavage, F, Sprague-Dawley, Liver: Liver Weight, Absolute + Liver: Liver Weight, Relative + Thyroid: Thyroid Gland Weight, Relative + Whole Body: Body Weight, Absolute….
Where [19] appears, read: short-term, duration: 28 days, oral, gavage, F, Sprague-Dawley, Pituitary: Thyroid stimulating hormone (TSH) + Thyroid: Thyroxine (T4), Free (Free T4).
Setting [20] is: short-term, duration: 28 days, oral, gavage, M, Sprague-Dawley, Epididymis: Epididymis Weight, Absolute + Epididymis: Epididymis Weight, Relative + Liver: Liver Weight, Relative + Liver: Liver, Abnormal ….
[21] abbreviates: short-term, duration: 28 days, oral, gavage, M, Sprague-Dawley, Epididymis: Epididymis, Abnormal Size + Pituitary: Thyroid stimulating hormone (TSH) + Prostate: Prostate, Abnormal Size + Seminal Vesicles….

`C=CC(F)(F)C(F)(F)C(F)(F)C(F)(F)F` [3,3,4,4,5,5,6,6,6-Nonafluorohexene]: the NEL is 704000 mg/m3 and 705000 mg/m3 (developmental, duration: 9 days, inhalation, M/F, Crl:CD(SD) BR, generation: F1, F1: Uterus: Fetuses, Dead + F1: Uterus: Fetuses, Live + F1: Whole Body: Body Weight, Fetal + F1: Whole Body: External Abnormalities + F1: …); 704000 mg/m3 and 705000 mg/m3 (reproduction developmental, duration: 9 days, inhalation, F, Crl:CD(SD) BR, generation: P0, P0: Liver: Liver Weight, Unspecified + P0: Ovary: Corpora Lutea + P0: Uterus: Implantation + P0: Uterus: Resorptions, Early + P0: Uterus: …); 10100 mg/m3 under setting [1]; 101000 mg/m3 (short-term, duration: 4 weeks, inhalation, F, Wistar, Adrenal: Adrenal Gland Weight, Absolute + Adrenal: Adrenal Gland Weight, Relative + Blood: Partial Thromboplastin Time (PTT) + Blood: …); 20100 mg/m3 under setting [3]; 101000 mg/m3 (short-term, duration: 4 weeks, inhalation, M, Wistar, Adrenal: Adrenal Gland Weight, Absolute + Adrenal: Adrenal Gland Weight, Relative + Blood: Prothrombin Time (PT) + Kidney: Kidney Weight, …). For the same molecule, the NEL amounted to 20100 mg/m3 under setting [4]; 10100 mg/m3 under setting [5]; 103000 mg/m3 (subchronic, duration: 90 days, inhalation, F, RccHan (Wist), Blood: White Blood Cell (WBC) + Whole Body: Body Weight Change); 103000 mg/m3 (subchronic, duration: 90 days, inhalation, M/F, RccHan (Wist), Blood: Activated Partial Thromboplastin Time (APTT) + Blood: Basophils + Blood: Calcium (CA), Blood + Blood: Chloride (CL), Blood + Blood: …); 103000 mg/m3 (subchronic, duration: 90 days, inhalation, M, RccHan (Wist), Blood: Large Unstained Cells + Whole Body: Body Weight Change); 30600 mg/m3 under setting [9]. The lowest-observed-adverse-effect level (LOAEL) (developmental, duration: 9 days, inhalation, Sprague-Dawley, generation: F1, F1: Developmental: Skeleton: Skeletal Malformation + F1: Developmental: Skeleton: Skeletal Ossification Variations + F1: Developmental: Soft…) was 705000 mg/m3 and 704000 mg/m3; the LOAEL (reproduction developmental, duration: 9 days, inhalation, F, Sprague-Dawley, generation: P0, P0: Developmental: Uterus: Implantation + P0: Developmental: Uterus: Resorptions, Early + P0: Developmental: Uterus: Resorptions, Late + P0…) was 705000 mg/m3 and 704000 mg/m3; the LOAEL under setting [2] was 705000 mg/m3 and 704000 mg/m3; the LOAEL under setting [6] was found to be 30600 mg/m3; the LOAEL under setting [7] came to 30600 mg/m3; the LOAEL (subchronic, duration: 90 days, inhalation, M/F, Wistar, Endocrine: Blood: Glucose (GLU) + Endocrine: Blood: Triglycerides (TRIG) + Endocrine: Serum: Cholesterol (CHOL), Total + General Toxicity: …) came out at 30600 mg/m3. For the same molecule, the LOAEL came to 30600 mg/m3 under setting [8], 30600 mg/m3 under setting [10] and 30600 mg/m3 under setting [11]. In addition, the NOAEL worked out at 70000 mg/m3 (developmental, duration: 9 days, inhalation, Sprague-Dawley, generation: F1, F1: Developmental: Whole Body: External Abnormalities); 10100 mg/m3 under setting [2]; 103000 mg/m3 (subchronic, duration: 90 days, inhalation, F, Wistar, General Toxicity: Whole Body: Body Weight Change); 10100 mg/m3 under setting [6]; 10100 mg/m3 under setting [7]; 10100 mg/m3 under setting [8]. The NOAEL was 103000 mg/m3 (subchronic, duration: 90 days, inhalation, M, Wistar, General Toxicity: Whole Body: Body Weight Change); 10100 mg/m3 under setting [10]; 10100 mg/m3 under setting [11]. Also, the LEL runs as follows: under setting [1], 704000 mg/m3 and 705000 mg/m3; under setting [3], 101000 mg/m3; under setting [4], 101000 mg/m3; under setting [5], 30600 mg/m3; under setting [9], 103000 mg/m3.
Consider `CCC(C)(c1ccc(O)cc1)c1ccc(O)cc1` [Bisphenol B], for which the LOEL reads like this: under setting [12], 200 mg/kg-day; under setting [13], 200 mg/kg-day; under setting [14], 600 mg/kg-day; under setting [15], 200 mg/kg-day; under setting [16], 600 mg/kg-day; under setting [17], 200 mg/kg-day. The NOEL by setting is: under setting [12], 20 mg/kg-day; under setting [13], 20 mg/kg-day; under setting [14], 200 mg/kg-day; (short-term, duration: 10 days, oral, gavage, M, BrlHan:WIST, body weight in the presence of TP + body weight the absence of TP + male accessory sex gland: relative bulbourethral gland weight in the …) 600 mg/kg-day; under setting [15], 50 mg/kg-day; (short-term, duration: 10 days, oral, gavage, M, BrlHan:WIST, male accessory sex gland: Cowper's gland weight (relative) + male accessory sex gland: glans penis weight (relative) + male accessory sex …) 600 mg/kg-day. Further, the NOEL runs as follows: under setting [16], 200 mg/kg-day; under setting [17], 50 mg/kg-day.
Turning to `FC(F)(I)C(F)(F)C(F)(F)C(F)(F)I` [Perfluoro-1,4-diiodobutane], the LOAEL under setting [18] is 30 mg/kg-day; the LOAEL under setting [19] came to 10 mg/kg-day; the LOAEL under setting [20] worked out at 30 mg/kg-day; the LOAEL under setting [21] came out at 10 mg/kg-day; the LOAEL (short-term, duration: 28 days, oral, gavage, M, Sprague-Dawley, Thyroid: Triiodothyronine, Free (Free T3)) was 1 mg/kg-day. Besides, the NOAEL was 10 mg/kg-day under setting [18]; 30 mg/kg-day (short-term, duration: 28 days, oral, gavage, F, Sprague-Dawley, Liver: Liver, Abnormal Area(s) + Liver: Liver, Abnormal Shape + Multi-organ: Follicle stimulating hormone (FSH) + Multi-organ: Luteinizing …); 3 mg/kg-day under setting [19]; 10 mg/kg-day under setting [20]; 3 mg/kg-day under setting [21]; 30 mg/kg-day (short-term, duration: 28 days, oral, gavage, M, Sprague-Dawley, Liver: Liver Weight, Absolute + Liver: Liver, Abnormal Area(s) + Liver: Liver, Abnormal Shape + Liver: Liver, Abnormal Size + Multi-organ: …).

The term LOAEL denotes the lowest dose or exposure tested at which an adverse effect was seen. In general, NOAEL refers to the highest tested level that showed no adverse finding.

Values taken from EPA's ToxValDB 9.5.
